Experimental data taken from patent US20220054640A1, “COMPOSITIONS AND METHODS FOR THE DELIVERY OF THERAPEUTIC AGENTS ACROSS THE ROUND WINDOW MEMBRANE” (Decibel Therapeutics, Inc., priority 2018, published 2022).
Like-named read-outs stand apart in the source and are kept apart here. Values belong to the molecule of their own block, whether it stands above or below them. Ends that are not written are not given here. Peptide text beside a SMILES is read from it.

Legend:
guinea pig RWM [1] = test: tight junction integrity of excised RWM in ex vivo culture; type: cell-based; conditions: 1% peptide TFA salt in DMEM, 1 hour
Description: The […] peptide is hypothesized to interfere with cellular tight junctions. To assess if this mechanism is relevant to the RWM, we excise the RWM from adult guinea pigs (Elm Hill Labs, Chelmsford, Mass.) and stain for a variety of adherens and tight junction proteins. To extract the guinea pig RWM, the temporal bone was removed from freshly sacrificed guinea pig tissue and placed in PBS. An incision was then made in the roof of the bulla to expose the cochlea, followed by trimming of the temporal bone, bulla, and middle ear bones to expose the RWM. The round window niche was then removed from the cochlea and then cultured in DMEM with and without 1% […].TFA for 1 hour. This tissue was then fixed in a 4% PFA solution for 30 minutes followed by wash with PBS (3 times, 5-minute incubations). […]

[2] = test system: tight and adherens junctions; test: immunohistochemical staining of tight and adherens junctions after the in vitro permeability assay; type: cell-based; conditions: 3.5 hours of incubation at 37° C., NT-3 in vehicle or with 1% peptide
Procedure: (§1) To further characterize the effects of peptide (XVI), the in vitro permeability assay was used to evaluate administration of NT-3 in either vehicle or 1% of peptide (XVI), as depicted in FIG. 18. In this experiment, cultures were incubated at 37° C. and 50 μL samples were collected at various time points. After 3.5 hours of incubation, the top and bottom media were collected separately and the insert was fixed for immunohistochemical staining to evaluate tight and adherens junctions.

[3] = background statement; cited from earlier work
[4] = background statement, test not described; cited from earlier work
[5] = guinea pig, not told
guinea pig RWM [6] = test: RWM integrity after in vivo application; conditions: 21 days post trans-tympanic injection, 0.1% peptide HCl salt
Procedure: To assess the capacity for the RWM to recover after application of the […] peptide we record ABR thresholds with and without application of a 50 μL formulation including 0.1% […].HCL to the guinea pig RWM via trans-tympanic injection. […] Post-injection (21 days), the guinea pigs in both the […] exposed and control groups were sacrificed, and the temporal bone was removed as described in Example 5, section (a).

ABR/hearing testing = type: in vivo, guinea pig
Procedure: Prior to ABR recording, the tympanic membrane was inspected for otitis media using a surgical microscope. Animals with otitis media were excluded from the analysis. A TDT RZ6 system was used to record the auditory brainstem response (ABR). Animals were anaesthetized with zoletil (20 mg/kg, I.M.) and placed in a soundproof chamber. Three stainless needle recording electrodes were inserted just under the skin and connected to the appropriate input on the PA4LI low impedance headstage: Channel 1: Ipsilateral ear (same side as stimulus delivery); Reference: contralateral ear; Ground: Vertex (base of skull). A computer-controlled TDT RZ6 System was used to generate the auditory pure tone and power amplified before fed to a closed-field speaker to deliver sound stimuli. The same pure tone stimuli were repeated 512 times, the sound pressure levels were increased in a step of 10 dB SPL (5 dB around threshold) from 20 dB SPL to 90 dB SPL after every 512 repeated trials. The lowest sound level which induced a brainstem response was regarded as the threshold. The hearing thresholds were measured at 4, 24, and 32 kHz. ABR recording was performed before surgery or dosing and on the 7th and 14th day after the formulation dosing. The ABR was recorded first from the left ear and then from the right ear.

round window membrane = test: in vitro permeability assay (apparent permeability, flux); type: in vitro ADME; conditions: NT-3 incubated with 1% peptide; for NT-3 apparent permeability (Papp) compared to control: FIG. 22
Procedure: To this end, an in vitro permeability assay was designed to test the apparent permeability of NT-3 against that of other compounds, the experimental design of which is shown in FIG. 1. After the initial formation of tight junctions, which was evaluated using transepithelial electrical resistance (TEER), 100 μL artificial perilymph (AP+) with API was added to the insert, and 500 μL AP+ was added to the bath. Cultures were incubated at 37° C. and 20 μL samples were collected at various time points.
as §1

[7] = cochlear perilymph exposure upon intratympanic administration; conditions: NT-3 formulation with permeation enhancer (peptide 1%)
[8] = listed as the peptide represented by formula (XVI)

Molecule: KLALKLALKALKLAALKLA.TFA (also: TFA salt)
junction protein structure in RWM (guinea pig RWM [1]): disrupts occludin, ZO-1, and alpha-catenin, but not actin (as imaged via phalloidin), or beta-catenin structure

Molecule: neurotrophin-3 [NT-3]
cell junction appearance (immunohistochemical staining) [2]: adherens junctions appeared normal | pI [3]: 9.5 | EC50 [4]: less than 20 ng/ml

Molecule: OCc1ccccc1 [benzyl alcohol, reference compound]
effect of permeation enhancer on cochlear NT-3 exposure / NT-3 delivery across the round window membrane [5]: incapable of substantially improving NT-3 delivery across the round window membrane

tight junction proteins (actin, ZO-1, alpha-catenin) in RWM (guinea pig RWM [6]): intact | ABR hearing test, change relative to Day 0 (ABR/hearing testing; 1 μL of 1% (w/v) peptide HCl salt in Poloxamer 407 (20% w/v), His buffer (pH6), Day 14): no change relative to Day 0 | ABR threshold shift (ABR/hearing testing; 50 μL formulation including 0.1% peptide HCl salt, trans-tympanic, 7 and 14 days): no noticeable threshold shift
Molecule: CC(C)C[C@H](NC(=O)[C@H](C)NC(=O)[C@H](CC(C)C)NC(=O)[C@H](CCCCN)NC(=O)[C@H](CC(C)C)NC(=O)[C@H](C)NC(=O)[C@H](CC(C)C)NC(=O)[C@@H](N)CCCCN)C(=O)N[C@@H](CCCCN)C(=O)N[C@@H](C)C(=O)N[C@@H](CC(C)C)C(=O)N[C@@H](CCCCN)C(=O)N[C@@H](CC(C)C)C(=O)N[C@@H](C)C(=O)N[C@@H](C)C(=O)N[C@@H](CC(C)C)C(=O)N[C@@H](CCCCN)C(=O)N[C@@H](CC(C)C)C(=O)N[C@@H](C)C(=O)O (H-KLALKLALKALKLAALKLA-OH; N-terminus and C-terminus assumed)

NT-3 flux compared to control (round window membrane; FIG. 21): greater flux | NT-3 apparent permeability (Papp) compared to control (round window membrane): greater | NT-3 apparent permeability (Papp) compared to control (round window membrane; [8]): increased NT-3 permeability
Molecule: CC(=O)NC(CCCCN)C(=O)NC(CC(C)C)C(=O)NC(C)C(=O)NC(CC(C)C)C(=O)NC(CCCCN)C(=O)NC(CC(C)C)C(=O)NC(C)C(=O)NC(CC(C)C)C(=O)NC(CCCCN)C(=O)NC(C)C(=O)NC(CC(C)C)C(=O)NC(CCCCN)C(=O)NC(CC(C)C)C(=O)NC(C)C(=O)NC(C)C(=O)NC(CC(C)C)C(=O)NC(CCCCN)C(=O)NC(CC(C)C)C(=O)NC(C)C(N)=O (centres unmarked) [peptide (XVI)] (Ac-KLALKLALKALKLAALKLA-NH2; configuration not given here)
cell junction appearance (immunohistochemical staining) [2]: gaps could be observed between cells | cell junction appearance (immunohistochemical staining) [2, 8]: gaps were observed between cells

Molecule: CC1(C)[C@@H](O[C@H]2O[C@H](C(=O)[O-])[C@@H](O)[C@H](O)[C@H]2O[C@@H]2O[C@H](C(=O)[O-])[C@@H](O)[C@H](O)[C@H]2O)CC[C@]2(C)[C@H]3C(=O)C=C4[C@@H]5C[C@@](C)(C(=O)O)CC[C@]5(C)CC[C@@]4(C)[C@]3(C)CC[C@@H]12.[K+].[K+] [dipotassium glycyrrhizinate]
effect of permeation enhancer on cochlear NT-3 exposure / NT-3 delivery across the round window membrane [7]: incapable of substantially improving NT-3 delivery across the round window membrane
